In one assay the target is Mcl-1 protein (UniProtKB primary accession number: Q07820) (Homo sapiens, UniProt Q07820). Nature of the assay: Inhibition of Mcl-1 by fluorescence polarisation, Method 1. The assay is classed as binding. Particulars: for IC50: read-out: IC50 (M) Mcl-1 FP. The essentials: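 An 11-point DMSO dilution of compound is mixed with buffer (10 mM HEPES, 150 mM NaCl, 0.05% Tween 20, pH 7.4) carrying 1 nM fluorescein-labelled ligand and 5 nM Mcl-1, final concentrations. Displacement is monitored by fluorescence polarisation.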
Sequence of Mcl-1 protein (Q07820 whole entry): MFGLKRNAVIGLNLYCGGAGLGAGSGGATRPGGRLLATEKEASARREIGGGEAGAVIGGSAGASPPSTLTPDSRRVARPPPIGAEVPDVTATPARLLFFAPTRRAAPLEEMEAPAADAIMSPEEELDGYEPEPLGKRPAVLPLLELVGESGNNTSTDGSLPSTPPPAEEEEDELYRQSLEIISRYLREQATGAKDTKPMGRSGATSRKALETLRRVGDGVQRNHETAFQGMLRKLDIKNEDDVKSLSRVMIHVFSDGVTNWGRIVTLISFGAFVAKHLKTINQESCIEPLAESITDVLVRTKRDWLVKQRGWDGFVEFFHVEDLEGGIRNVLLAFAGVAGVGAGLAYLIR

Assay [1] concerns H929 multiple myeloma tumour line. Nature of the assay: In vitro cytotoxicity, Microculture Tetrazolium Assay. The assay is classed as cell-based. The following applies: H929 cells, 48 hours exposure, MTT, read-out: IC50 (μM) MTT H929. How it is done:
The cytotoxicity studies were carried out on the H929 multiple myeloma tumour line.
The cells are distributed onto microplates and exposed to the test compounds for 48 hours.

Where [2] appears, read: fluorescence polarisation, Method 1, or Method 2.
Setting [3] is: fluorescence polarisation test, Method 2 values are underlined in the patent (underlining not visible here).

Like-named read-outs stand apart in the source and are kept apart here.

As a reminder, the IC50 is the concentration needed to halve the response being measured.

In the case of `COc1ccc(-c2sc3ncnc(OC(Cc4ccccc4OC)C(=O)O)c3c2-c2ccc(OCCN3CCN(C)CC3)c(Cl)c2C)o1` [Example 544, (2R)-2-{[(5Sa)-5-{3-chloro-2-methyl-4-[2-(4-methylpiperazin-1-yl)ethoxy]phenyl}-6-(5-methoxyfuran-2-yl)thieno[2,3-d]pyrimidin-4-yl]oxy}-3-(2-methoxyphenyl)propanoic acid], the IC50 at Mcl-1 protein (setting [2]) turned out to be 1.4e-08 M; in assay [1] (Homo sapiens, NCI-H929, 48 h), 0.274 µM.

Turning to `Cc1c(-c2c(-c3ccco3)sc3ncnc(OC(Cc4ccccc4OCc4cnccn4)C(=O)O)c23)ccc(OCCN2CCN(C)CC2)c1Cl` [Example 275, (2R)-2-{[(5Sa)-5-{3-chloro-2-methyl-4-[2-(4-methylpiperazin-1-yl)ethoxy]phenyl}-6-(furan-2-yl)thieno[2,3-d]pyrimidin-4-yl]oxy}-3-[2-(pyrazin-2-ylmethoxy)phenyl]propanoic acid], the IC50 is 4.5e-09 M at Mcl-1 protein (setting [3]) and 0.051 µM in assay [1] (Homo sapiens, NCI-H929, 48 h).

Consider `COc1ccccc1CC(Oc1ncnc2sc(-c3cccc(C#N)c3)c(-c3ccc(OCCN4CCN(C)CC4)c(Cl)c3C)c12)C(=O)O` [Example 548, (2R)-2-{[(5Sa)-5-{3-chloro-2-methyl-4-[2-(4-methylpiperazin-1-yl)ethoxy]phenyl}-6-(3-cyanophenyl)thieno[2,3-d]pyrimidin-4-yl]oxy}-3-(2-methoxyphenyl)propanoic acid], for which the IC50 on Mcl-1 protein (setting [2]) was 1.8e-08 M; in assay [1] (Homo sapiens, NCI-H929, 48 h) it was 0.497 µM.

In the case of `COc1ccccc1CC(Oc1ncnc2sc(-c3ccc(C4CC4)o3)c(-c3ccc(OCCN4CCN(C)CC4)c(Cl)c3C)c12)C(=O)O` [Example 585, (2R)-2-{[(5Sa)-5-{3-chloro-2-methyl-4-[2-(4-methylpiperazin-1-yl)ethoxy]phenyl}-6-(5-cyclopropylfuran-2-yl)thieno[2,3-d]pyrimidin-4-yl]oxy}-3-(2-methoxyphenyl)propanoic acid], the IC50 turned out to be 8.5e-08 M at Mcl-1 protein (setting [2]) and 2.92 µM in assay [1] (Homo sapiens, NCI-H929, 48 h).

Turning to `CCC#Cc1sc2ncnc(OC(Cc3ccccc3OC)C(=O)O)c2c1-c1ccc(OCCN2CCN(C)CC2)c(Cl)c1C` [Example 573, (2R)-2-{[6-(but-1-yn-1-yl)-(5Sa)-5-{3-chloro-2-methyl-4-[2-(4-methylpiperazin-1-yl)ethoxy]phenyl}thieno[2,3-d]pyrimidin-4-yl]oxy}-3-(2-methoxyphenyl)propanoic acid], the IC50 turned out to be 1.1e-08 M on Mcl-1 protein (setting [2]) and 0.366 µM in assay [1] (Homo sapiens, NCI-H929, 48 h).

With `Cc1c(-c2c(-c3ccc(F)cc3)sc3ncnc(OC(Cc4ccccc4OCC(F)(F)F)C(=O)O)c23)ccc(OCCN(C)C)c1Cl` [Example 127, (2R)-2-{[(5Sa)-5-{3-chloro-4-[2-(dimethylamino)ethoxy]-2-methylphenyl}-6-(4-fluorophenyl)thieno[2,3-d]pyrimidin-4-yl]oxy}-3-[2-(2,2,2-trifluoroethoxy)phenyl]propanoic acid], the IC50 at Mcl-1 protein (setting [3]) was 2e-08 M; in assay [1] (Homo sapiens, NCI-H929, 48 h), 0.558 µM.

For the molecule `Cc1c(-c2c(-c3ccco3)sc3ncnc(OC(Cc4ccccc4OC(C)C)C(=O)O)c23)ccc(OCCN2CCN(C)CC2)c1Cl` [Example 210, (2R)-2-{[(5Sa)-5-{3-chloro-2-methyl-4-[2-(4-methylpiperazin-1-yl)ethoxy]phenyl}-6-(furan-2-yl)thieno[2,3-d]pyrimidin-4-yl]oxy}-3-[2-(propan-2-yloxy)phenyl]propanoic acid], the IC50 on Mcl-1 protein (setting [3]) came out at 1e-08 M; in assay [1] (Homo sapiens, NCI-H929, 48 h) it was 0.406 µM.

`COCCN1CCN(CCOc2ccc(-c3c(-c4ccco4)sc4ncnc(OC(Cc5ccccc5OC)C(=O)O)c34)c(C)c2Cl)CC1` [Example 330, (2R)-2-{[(5Sa)-5-(3-chloro-4-{2-[4-(2-methoxyethyl)piperazin-1-yl]ethoxy}-2-methylphenyl)-6-(furan-2-yl)thieno[2,3-d]pyrimidin-4-yl]oxy}-3-(2-methoxyphenyl)propanoic acid]: the IC50 on Mcl-1 protein (setting [3]) came to 8.3e-09 M; in assay [1] (Homo sapiens, NCI-H929, 48 h), 1.17 µM.

Turning to `Cc1c(-c2c(-c3ccc(F)cc3)sc3ncnc(OC(Cc4ccccc4OCc4ccc(F)cn4)C(=O)O)c23)ccc(OCCN2CCN(C)CC2)c1Cl` [Example 10, (2R)-2-{[(5Sa)-5-{3-chloro-2-methyl-4-[2-(4-methylpiperazin-1-yl)ethoxy]phenyl}-6-(4-fluorophenyl)thieno[2,3-d]pyrimidin-4-yl]oxy}-3-{2-[(5-fluoropyridin-2-yl)methoxy]phenyl}propanoic acid], the IC50 at Mcl-1 protein (setting [3]) amounted to 9.7e-09 M; in assay [1] (Homo sapiens, NCI-H929, 48 h) it was 0.275 µM.

In the case of `CCOC(=O)[C@@H](Cc1ccccc1OCc1ccnc(OC)n1)Oc1ncnc2sc(-c3ccc(F)o3)c(-c3ccc(OCCN4CCN(C)CC4)c(Cl)c3C)c12` [Example 625, ethyl (2R)-2-{[(5Sa)-5-{3-chloro-2-methyl-4-[2-(4-methylpiperazin-1-yl)ethoxy]phenyl}-6-(5-fluorofuran-2-yl)thieno[2,3-d]pyrimidin-4-yl]oxy}-3-{2-[(2-methoxypyrimidin-4-yl)methoxy]phenyl}propanoate], at Mcl-1 protein (partial inhibitors, @ 10 uM test compound), the “percentage fluorescence polarisation inhibition, Mcl-1 FP” value amounted to 74.85% @ 10 uM. The IC50 in assay [1] worked out at 0.62 µM.

For the molecule `Cc1c(-c2c(-c3ccc(F)o3)sc3ncnc(OC(Cc4ccccc4OCC(F)(F)F)C(=O)O)c23)ccc(OCCN(C)C)c1Cl` [Example 200, (2R)-2-{[(5Sa)-5-{3-chloro-4-[2-(dimethylamino)ethoxy]-2-methylphenyl}-6-(5-fluorofuran-2-yl)thieno[2,3-d]pyrimidin-4-yl]oxy}-3-[2-(2,2,2-trifluoroethoxy)phenyl]propanoic acid], the IC50 on Mcl-1 protein (setting [3]) turned out to be 6.1e-09 M; in assay [1] (Homo sapiens, NCI-H929, 48 h), 0.106 µM.

As for `Cc1c(-c2c(-c3ccc(Cl)o3)sc3ncnc(OC(Cc4ccccc4OCc4ccncn4)C(=O)O)c23)ccc(OCCN2CCN(C)CC2)c1Cl` [Example 370, (2R)-2-{[6-(5-chlorofuran-2-yl)-(5Sa)-5-{3-chloro-2-methyl-4-[2-(4-methylpiperazin-1-yl)ethoxy]phenyl}thieno[2,3-d]pyrimidin-4-yl]oxy}-3-[2-(pyrimidin-4-ylmethoxy)phenyl]propanoic acid], the IC50 came to 8.7e-09 M on Mcl-1 protein (setting [3]) and 0.018 µM in assay [1] (Homo sapiens, NCI-H929, 48 h).

On to `CCn1nccc1COc1ccccc1CC(Oc1ncnc2sc(-c3ccc(F)c(OC)c3)c(-c3ccc(OCCN4CCN(C)CC4)c(Cl)c3C)c12)C(=O)O` [Example 384, (2R)-2-{[(5Sa)-5-{3-chloro-2-methyl-4-[2-(4-methylpiperazin-1-yl)ethoxy]phenyl}-6-(4-fluoro-3-methoxyphenyl)thieno[2,3-d]pyrimidin-4-yl]oxy}-3-{2-[(1-ethyl-1H-pyrazol-5-yl)methoxy]phenyl}propanoic acid], for which the IC50 on Mcl-1 protein (setting [3]) was 3.8e-09 M; in assay [1] (Homo sapiens, NCI-H929, 48 h), 0.053 µM.

With `Cc1c(-c2c(-c3ccc(F)cc3)sc3ncnc(OC(Cc4ccccc4OCc4ccnc(-c5ccccc5OCc5ccccc5)n4)C(=O)O)c23)ccc(OCCN2CCN(C)CC2)c1Cl` [Example 725, (2R)-3-[2-({2-[2-(benzyloxy)phenyl]pyrimidin-4-yl}methoxy)phenyl]-2-{[(5Sa)-5-{3-chloro-2-methyl-4-[2-(4-methylpiperazin-1-yl)ethoxy]phenyl}-6-(4-fluorophenyl)thieno[2,3-d]pyrimidin-4-yl]oxy}propanoic acid], the IC50 at Mcl-1 protein (setting [2]) stood at 1.46e-09 M; in assay [1] (Homo sapiens, NCI-H929, 48 h) it was 0.01 µM.

Consider `CCOc1cccc(-c2sc3ncnc(OC(Cc4ccccc4OC)C(=O)O)c3c2-c2ccc(OCCN3CCN(C)CC3)c(Cl)c2C)c1` [Example 557, (2R)-2-{[(5Sa)-5-{3-chloro-2-methyl-4-[2-(4-methylpiperazin-1-yl)ethoxy]phenyl}-6-(3-ethoxyphenyl)thieno[2,3-d]pyrimidin-4-yl]oxy}-3-(2-methoxyphenyl)propanoic acid], for which the IC50 at Mcl-1 protein (setting [2]) is 4.5e-09 M; in assay [1] (Homo sapiens, NCI-H929, 48 h) it was 0.475 µM.

Consider `COc1cccc(COc2ccccc2CC(Oc2ncnc3sc(-c4ccco4)c(-c4ccc(OCCN5CCN(C)CC5)c(Cl)c4C)c23)C(=O)O)n1` [Example 238, (2R)-2-{[(5Sa)-5-{3-chloro-2-methyl-4-[2-(4-methylpiperazin-1-yl)ethoxy]phenyl}-6-(furan-2-yl)thieno[2,3-d]pyrimidin-4-yl]oxy}-3-{2-[(6-methoxypyridin-2-yl)methoxy]phenyl}propanoic acid], for which the IC50 amounted to 5.9e-09 M at Mcl-1 protein (setting [3]) and 0.077 µM in assay [1] (Homo sapiens, NCI-H929, 48 h).

Regarding `Cc1c(-c2c(-c3ccco3)sc3ncnc(OC(Cc4ccccc4OCc4ncc(-c5ccccc5)cn4)C(=O)O)c23)ccc(OCCN2CCN(C)CC2)c1Cl` [Example 283, (2R)-2-{[(5Sa)-5-{3-chloro-2-methyl-4-[2-(4-methylpiperazin-1-yl)ethoxy]phenyl}-6-(furan-2-yl)thieno[2,3-d]pyrimidin-4-yl]oxy}-3-{2-[(5-phenylpyrimidin-2-yl)methoxy]phenyl}propanoic acid], the IC50 is 2.6e-08 M on Mcl-1 protein (setting [3]) and 0.25 µM in assay [1] (Homo sapiens, NCI-H929, 48 h).

For `CCCn1nccc1COc1ccccc1CC(Oc1ncnc2sc(-c3ccc(F)cc3)c(-c3ccc(OCCN4CCN(C)CC4)c(Cl)c3C)c12)C(=O)O` [Example 81, (2R)-2-{[(5Sa)-5-{3-chloro-2-methyl-4-[2-(4-methylpiperazin-1-yl)ethoxy]phenyl}-6-(4-fluorophenyl)thieno[2,3-d]pyrimidin-4-yl]oxy}-3-{2-[(1-propyl-1H-pyrazol-5-yl)methoxy]phenyl}propanoic acid], the IC50 is 7.6e-09 M at Mcl-1 protein (setting [3]) and 0.034 µM in assay [1] (Homo sapiens, NCI-H929, 48 h).

For the molecule `COCCCn1nccc1COc1ccccc1CC(Oc1ncnc2sc(-c3ccc(F)cc3)c(-c3ccc(OCCN4CCN(C)CC4)c(Cl)c3C)c12)C(=O)O` [Example 86, (2R)-2-{[(5Sa)-5-{3-chloro-2-methyl-4-[2-(4-methylpiperazin-1-yl)ethoxy]phenyl}-6-(4-fluorophenyl)thieno[2,3-d]pyrimidin-4-yl]oxy}-3-(2-{[1-(3-methoxypropyl)-1H-pyrazol-5-yl]methoxy}phenyl)propanoic acid], the IC50 is 2.9e-09 M on Mcl-1 protein (setting [3]) and 0.063 µM in assay [1] (Homo sapiens, NCI-H929, 48 h).

Source of the values: patent publication US9670227B2, “Thienopyrimidine derivatives, a process for their preparation and pharmaceutical compositions containing them” (LES LABORATOIRES SERVIER, priority 2013, dated 2017).
